{"source": "patent US12605350B2", "about": "“Composition for preventing, ameliorating, or treating disease caused by nitration of tyrosine in proteins comprising tyrosine as effective component” (INDUSTRY-ACADEMIC COOPERATION FOUNDATION GYEONGSANG …, priority 2020, dated 2026)", "key": {"[1]": {"tested_on": "high-fat diet mouse model of type 2 diabetes", "test": "high-fat diet mouse model of type 2 diabetes: bodyweight, food intake amount, blood glucose", "type": "in vivo", "conditions": "HFD+L-Tyr (181 mg of L-tyrosine/kg) compared to HFD, measured every week", "method": "(§1) Twenty-seven C57BL/6 male mice (3-week old) were acclimated to the breeding condition for 1 week. […] Blood glucose was measured every week."}, "[2]": {"tested_on": "high-fat diet mouse model of type 2 diabetes", "test": "ROS/RNS amount in plasma, high-fat diet model", "type": "in vivo", "conditions": "HFD+L-Tyr vs HFD", "method": "as §1\nMouse was anesthetized with avertin, and blood was collected from a heart. After the reaction with EDTA in a vacucontainer, the blood was centrifuged for 15 minutes at 1,500×g, 4° C. to separate plasma. According to heart perfusion with PBS and 4% paraformaldehyde (PFA), tissue fixation was carried out. Then, each tissue was harvested and stored in PFA.\nAfter 3-fold dilution of the plasma in PBS, concentration of reactive oxygen/reactive nitrogen (ROS/RNS) in plasma was measured using Oxiselect ROS/RNS assay kit (Cell Biolabs) according to the recommended experimental protocol."}, "human recombinant MnSOD": {"target": "T1, human recombinant MnSOD (Homo sapiens, UniProt P04179)", "T1 sequence (P04179 25-222)": "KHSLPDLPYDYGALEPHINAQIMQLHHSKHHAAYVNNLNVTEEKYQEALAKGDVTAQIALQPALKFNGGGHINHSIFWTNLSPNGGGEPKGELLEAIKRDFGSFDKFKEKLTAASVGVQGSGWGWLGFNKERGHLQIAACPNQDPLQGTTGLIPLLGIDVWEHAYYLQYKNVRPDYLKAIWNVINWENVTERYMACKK", "test": "SOD activity of human recombinant MnSOD treated with peroxynitrite", "type": "biochemical", "conditions": "human recombinant MnSOD with peroxynitrite (2.1 mM PN), 10 minutes on ice", "method": "Peroxynitrite was diluted by 40 times with 0.3 M NaOH, and absorbance at 302 nm was measured. Then, it was quantified by using the molar absorption coefficient of peroxynitrite) (ε302=1670 M^−1 cm^−1).\nFor the measurement of SOD activity, SOD colorimetric activity kit by ThermoFisher was used. Human recombinant MnSOD within reference SOD range, peptide, and peroxynitrite were admixed with one another, and the reaction was allowed to occur on ice for 10 minutes. To a 96-well plate, 10 μl of reference SOD or the reaction mixture, and 50 μl of a substrate solution provided in the kit were added, and the absorbance at 450 nm was measured. After adding 25μl of xanthine oxidase provided in the kit and allowing the reaction to occur for 20 minutes at room temperature, absorbance at 450 nm was measured. By using the data obtained by subtracting the first-measured absorbance from the second-measured absorbance, SOD activity was obtained."}, "IL-1β": {"tested_on": "IL-1β", "test": "IL-1β gene expression in kidney tissues (quantitative real-time PCR), renal ischemia and reperfusion", "type": "in vivo, mouse", "conditions": "L-tyrosine 100 mg/kg oral once a day for 4 days, 24 hours after ischemia and reperfusion", "method": "(§2) C57BL/6 male mouse (23 to 25 g, KOATECH, South Korea) was allowed to have free access to diets and water in sterile breeding room with constant temperature and humidity. The animals were divided into 3 test groups, i.e., 1) Control group (Sham), 2) Renal ischemia having treatment with prepared solvent and induced reperfusion group (CMC+IR), and 3) Renal ischemia having treatment with L-tyrosine and induced reperfusion group (L-Tyr+IR).\n(§3) L-Tyrosine (100 mg/kg) was suspended in 0.5% CMC (carboxymethyl cellulose). The animal was orally administered, once a day for 4 days, with L-tyrosine or the prepared solvent CMC. Thirty minutes after the oral administration on Day 4, renal ischemia was caused. Specifically, the animal abdomen was cut and renal pedicles at both sides were clamped using a Muller atraumatic vascular clamp to cause renal ischemia. After 25 minutes of blood ischemia, the clamp was removed followed by reperfusion. The control group (Sham) received the same operational procedures as above except the ischemia using clamp. […]\n(§4) According to Trizol method, total RNA was extracted from kidney tissues, and cDNA was synthesized by using Revert Aid Reverse Transcription System (ThermoFisher). Quantitative PCR was carried out with CFX Connect Real-Time PCR system (Bio-Rad) by using iQ SYBR Green Super mix (Bio-Rad). […]"}, "IL-6": {"tested_on": "IL-6", "test": "IL-6 gene expression in kidney tissues (quantitative real-time PCR), renal ischemia and reperfusion", "type": "in vivo, mouse", "conditions": "L-tyrosine 100 mg/kg oral once a day for 4 days, 24 hours after ischemia and reperfusion", "method": "as §2, §3, §4"}, "[3]": {"tested_on": "mouse model of chronic immobilization stress", "test": "object recognition test (ORT)", "type": "in vivo", "conditions": "D-Tyr-containing diet (181 mg D-Tyr/kg AIN-93G), chronic stress 14 days", "method": "(§5) Twenty-eight C57BL/6 male mice (7-week old) were divided into two groups, each group provided for 1 week with a normal diet or D-tyrosine (D-Tyr)-containing diet (181 mg D-Tyr/kg AIN-93G).\n(§6) Once the animals become 8-week old, they were applied with chronic immobilization stress (CIS) under light condition of 200 lux, 2 hours per day for 2 weeks. The animals were divided into the control group (CTL), D-Tyr diet control group (CTL+D-Tyr), chronic stress group (STR), and D-Tyr diet chronic stress group (STR+D-Tyr), in which each group consists of 7 animals.\n(§7) Upon the completion of the CIS for 2 weeks, a cognitive function test was carried out. To compare the cognitive function between the group provided with D-Tyr-containing diet over the entire test period including habituation period and normal feed diet group, an object recognition test (ORT) and an object location recognition test (OLT) for testing long-term memory skills were carried out.\nORT: The test consists of three stages, i.e., habituation, familiarization, and test. The animals were habituated in a test box, 10 minutes per day for 2 days. At the familiarization stage on Day 3, they were allowed to explore two identical objects for 10 minutes. […] The object recognition function index (i.e., discrimination index: DI) was calculated based on the following formula (3). […]"}, "[4]": {"tested_on": "mouse model of chronic immobilization stress", "test": "object location recognition test (OLT)", "type": "in vivo", "conditions": "D-Tyr-containing diet (181 mg D-Tyr/kg AIN-93G), chronic stress 14 days", "method": "as §5, §6, §7\nOLT: 24 Hours after carrying out ORT, location of a familiar object was changed, and the animal was allowed to explore for 5 minutes. According to the same method as the aforementioned object recognition function index (DI), ratio of time spent for exploring an object with changed location compared to the entire time for exploring an object was calculated. Accordingly, object location recognition function index was obtained."}}}
{"molecule": "N[C@@H](Cc1ccc(O)cc1)C(=O)O", "note": "[L-tyrosine]", "values": [{"measurement": "blood glucose", "setting": "[1]", "result": "statistically significant decrease in blood glucose amount"}, {"measurement": "blood glucose", "setting": "[1]; listed as L-Tyr", "result": "statistically significant decrease"}, {"measurement": "plasma ROS/RNS level", "setting": "[2]", "result": "statistically significant decrease in plasma ROS/RNS level"}, {"measurement": "MnSOD (SOD) activity", "setting": "human recombinant MnSOD", "result": "higher MnSOD activity"}, {"measurement": "gene expression of IL-1β in kidney tissues", "setting": "IL-1β", "result": "suppressed"}, {"measurement": "gene expression of IL-6 in kidney tissues", "setting": "IL-6", "result": "suppressed"}]}
{"molecule": "N[C@@H](Cc1ccc(O)cc1)C(=O)O", "note": "[tyrosine]", "values": [{"measurement": "plasma ROS/RNS level", "setting": "[2]; listed as Tyr", "result": "statistically significant decrease in tissue weight and ROS/RNS amount in plasma"}, {"measurement": "ORT (object recognition function index, DI)", "setting": "[3]", "result": "no statistically significant difference"}, {"measurement": "cognitive function according to OTL (object location recognition function index)", "setting": "[4]", "result": "maintained at the level of the control group"}, {"measurement": "MnSOD (SOD) activity", "setting": "human recombinant MnSOD; listed as Tyr", "result": "SOD activity can be maintained"}]}
